# Reference: patent US10723741B1, “DNA polymerase IIIC inhibitors and use thereof” (Acurx Pharmaceuticals, LLC, priority 2018, dated 2020)
# Counter-ions that a name gives are not always drawn. Like-named read-outs stand apart in the source and are kept apart here.
# Assays:
# Format in all cases: cell-based
# [1] = test system: Staphylococcus aureus NRS384 (MRSA); test: Broth microdilution MIC, S. aureus NRS384 (MRSA); design: MIC NRS 384 (MRSA): unit not given here; conditions: broth microdilution, 37° C., 20 hours; for MIC: Staphylococcus aureus, read-out: MIC NRS 384 (MRSA)
# Method in brief: (§1)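 Broth microdilution in strain-specific test medium with ~5.0×10^5 cfu/ml inoculum, 1% DMSO and two-fold compound dilutions from 64 to 0.0625 μg/ml. Plates were held 20 hours at 37° C in ambient air. S. pneumoniae colonies were grown beforehand on blood agar in 5% CO2.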
# [2] = test system: Bacillus subtilis ATCC 6633; test: Broth microdilution MIC, B. subtilis ATCC 6633; conditions: read-out: MIC B. subtilis ATCC 6633
# Method in brief: as §1
# [3] = test system: Enterococcus faecium ATCC 700221 (VRE); test: Broth microdilution MIC, E. faecium ATCC 700221 (VRE); design: MIC E. faecium ATCC 700221 (VRE): unit: ug/mL; conditions: broth microdilution, 37° C., 20 hours; for MIC: Enterococcus faecium, read-out: MIC E. faecium ATCC 700221 (VRE)
# Method in brief: as §1
# [4] = test system: Staphylococcus aureus ATCC 29213 (MSSA); test: Broth microdilution MIC, S. aureus ATCC 29213 (MSSA); conditions: read-out: MIC S. aureus ATCC 29213 (MSSA)
# Method in brief: as §1
# [5] = test system: Escherichia coli ATCC 25922; test: Broth microdilution MIC, E. coli ATCC 25922 (MHIIB w & w/o 4 mM EDTA); conditions: for MIC: Escherichia coli, read-out: MIC E. coli ATCC 25922; for MIC E. coli ATCC 25922 + 4 mM EDTA: with 4 mM EDTA
# Method in brief: as §1
# [6] = test system: Enterococcus faecalis ATCC 29212; test: Broth microdilution MIC, E. faecalis ATCC 29212; conditions: read-out: MIC E. faecalis ATCC 29212
# Method in brief: as §1
# [7] = test system: Streptococcus pneumoniae ATCC 49619; test: Broth microdilution MIC, S. pneumoniae ATCC 49619; conditions: read-out: MIC S. pneumoniae ATCC 49619
# Method in brief: as §1
# [8] = ATCC6633, broth microdilution, 37° C., 20 hours
# [9] = broth microdilution, 37° C., 20 hours
# [10] = ATCC25922, without EDTA, broth microdilution, 37° C., 20 hours
# [11] = ATCC29212, broth microdilution, 37° C., 20 hours
# [12] = ATCC49619, broth microdilution, 37° C., 20 hours
SMILES,MIC [1] [µg/mL],"MIC [2, 8] [µg/mL]",MIC [3] [µg/mL],"MIC [4, 9] [µg/mL]","MIC [5, 10] [µg/mL]","MIC E. coli ATCC 25922 + 4 mM EDTA [5, 9] [µg/mL]","MIC [6, 11] [µg/mL]","MIC [7, 12] [µg/mL]",MIC NRS 384 (MRSA) [1],"MIC ([2]; ATCC6633, 20 h) [µg/mL]",MIC E. faecium ATCC 700221 (VRE) [3],MIC ([4]; 20 h) [µg/mL],"MIC ([5]; ATCC25922, 20 h) [µg/mL]","MIC ([6]; ATCC29212, 20 h) [µg/mL]","MIC ([7]; ATCC49619, 20 h) [µg/mL]"
"CC(C(=O)O)n1cc2nc(NCc3ccc(Cl)c(Cl)c3)[nH]c(=O)c2n1 (stereo not drawn) [Compound 223, 2-(5-((3,4-dichlorobenzyl)amino)-7-oxo-6,7-dihydro-2H-pyrazolo[4,3-d]pyrimidin-2-yl)propanoic acid]",> 64,> 64,> 64,> 64,> 64,>64,> 64,> 64,,,,,,,
"Cn1ncc2nc(NCc3ccncc3)[nH]c(=O)c21 [Compound 6, 1-Methyl-5-((pyridin-4-ylmethyl)amino)-1H-pyrazolo[4,3-d]pyrimidin-7(6H)-one]",> 64,> 64,> 64,> 64,> 64,>64,> 64,> 64,,,,,,,
"Cn1ncc2nc(NCc3ccc4[nH]ncc4c3)[nH]c(=O)c21 [Compound 13, 5-(((1H-indazol-5-yl)methyl)amino)-1-methyl-1H-pyrazolo[4,3-d]pyrimidin-7(6H)-one]",> 64,> 64,> 64,> 64,> 64,>64,> 64,> 64,,,,,,,
"O=c1[nH]c(NCc2ccc(Cl)c(Cl)c2)nc2cnn(Cc3coc(CO)n3)c12 [Compound 171, 5-((3,4-dichlorobenzyl)amino)-1-((2-(hydroxymethyl)oxazol-4-yl)methyl)-1H-pyrazolo[4,3-d]pyrimidin-7(6H)-one]",16,4,8,32,> 64,>64,16,8,,,,,,,
"C[C@H](O)Cn1ncc2nc(NCc3ccc(Cl)c(Cl)c3)[nH]c(=O)c21 [Compound 240, (S)-5-((3,4-dichlorobenzyl)amino)-1-(2-hydroxypropyl)-1H-pyrazolo[4,3-d]pyrimidin-7(6H)-one]",4,2,4,4,> 64,>64,8,4,,,,,,,
"CN(CCn1ncc2nc(NCc3ccc(Cl)c(Cl)c3)[nH]c(=O)c21)C(=O)c1cc(O)nnc1Cl [Compound 87, 3-chloro-N-(2-(5-((3,4-dichlorobenzyl)amino)-7-oxo-6,7-dihydro-1H-pyrazolo[4,3-d]pyrimidin-1-yl)ethyl)-6-hydroxy-N-methylpyridazine-4-carboxamide]",> 64,64,32,64,> 64,>64,32,8,,,,,,,
"O=c1[nH]c(NCc2ccc(Cl)c(Cl)c2)nc2cnn(C3CCN(c4cccnc4)CC3)c12 [Compound 163, 5-((3,4-dichlorobenzyl)amino)-1-(1-(pyridin-3-yl)piperidin-4-yl)-1H-pyrazolo[4,3-d]pyrimidin-7(6H)-one dihydrochloride]",,,,,,>64,,,2/2,0.5,2/2,2,> 64,> 64,8
"Cl.NC(=O)C1CCN(CCn2ncc3nc(NCc4ccc(Cl)c(Cl)c4)[nH]c(=O)c32)CC1 [Compound 66, 1-(2-(5-((3,4-Dichlorobenzyl)amino)-7-oxo-6,7-dihydro-1H-pyrazolo[4,3-d]pyrimidin-1-yl)ethyl)piperidine-4-carboxamide hydrochloride hydrochloride]",32,8,16,64,> 64,64,32,8,,,,,,,
"Cn1nc(C2CCCO2)c2nc(NCc3ccc(Cl)c(Cl)c3)[nH]c(=O)c21 (stereo not drawn) [Compound 47, 5-((3,4-dichlorobenzyl)amino)-1-methyl-3-(tetrahydrofuran-2-yl)-1H-pyrazolo[4,3-d]pyrimidin-7(6H)-one]",16,8,16,16,> 64,>64,> 64,32,,,,,,,
